Reference: patent publication US4288437A, “2-[(Amino)-aryl-methylene]-benzo[b]thiophen-3(2H)-ones” (Boehringer Ingelheim GmbH, priority 1979, dated 1981)
Like-named read-outs stand apart in the source and are kept apart here.

What was measured:
[1] = Orienting acute toxicity in mice; conditions: mouse, in vivo, po, observation period 7 days
Description: The orienting acute toxicity of the compounds was determined after administering a dose to groups of 6 or 10 mice each with body weights between 10 and 26 gm (observation period: 7 days).

[2] = system: tonic extensor spasm of the rear legs of male mice under maximum electric shock; assay: Anticonvulsant activity in mice (inhibition of tonic extensor spasm under maximum electric shock); assay type: in vivo, male SPF mice (Chbb:NMRI); conditions: Mus musculus, po, p.o., 10 mice/dose
Description: 1. Anticonvulsant activity in mice
The anticonvulsant activity was tested as the inhibition of the tonic extensor spasm of the rear legs of male mice under maximum electric shock.
The test animals were male SPF mice (Chbb:NMRI) weighing 20 to 26 g which, up to one hour before oral administration of the test compound, had access to standard feed and drinking water.
The test procedure was based on that of SWINYARD, BROWN and GOODMAN (J. Pharmacol. Exp. Ther. 106, 319 [1952]). The electrical shock equipment was manufactured in accordance with information provided by WOODBURY and DAVENPORT (Arch. int. Pharmacodyn. 92, 97 [1952]). The electrical stimuli were applied to the heads of the animals above the eyes using chamois-covered steel ball electrodes moistened with a 0.9% NaCl solution. The stimulus lasted 0.2 sec. using alternating current of 50 Hz and 50 mA. There was a […] and then a tonic stretching spasm of the extremities in the case of all the controls.
The substance to be tested was suspended in a 1% tylose slurry and was perorally administered in a volume of 0.1 ml/10 gm mouse to 10 mice/dose. […], and the ED50 values were determined as the dosages sufficient to protect 50% of the animals against the tonic stretching spasm of the rear extremities, either graphically or by the method of LITCHFIELD and WILCOXON (J. Pharmacol. Exp. Ther. 96, 99 [1949]).

[3] = 0.5 h, shock 30 minutes after administration, read-out: ED50, 30 minutes
[4] = 2.5 h, shock 150 minutes after administration, read-out: ED50, 150 minutes
[5] = 5 h, shock 300 minutes after administration, read-out: ED50, 300 minutes

Compound	LD50 at 168 h [1]	ED50 [2, 3]	ED50 [2, 4]	ED50 [2, 5]
CCN/C(=C1/Sc2ccccc2C1=O)c1ccccc1 [F, (E)-2-[(ethylamino)phenylmethylene]-benzo[b]thiophen-3(2H)-one]	> 1000 mg/kg	22.5 mg/kg	54.6 mg/kg	79 mg/kg
CN/C(=C1/Sc2ccccc2C1=O)c1ccccc1 [B, (E)-2-[(methylamino)phenylmethylene]-benzo[b]thiophen-3(2H)-one]	> 1000 mg/kg	90 mg/kg	38 mg/kg	49 mg/kg
O=C1/C(=C(\NCCO)c2ccccc2)Sc2ccccc21 [D, (E)-2-{[(2-hydroxy-ethyl)amino]phenylmethylene}benzo[b]thiophen-3(2H)-one]	> 1000 mg/kg	33 mg/kg	41 mg/kg	42.5 mg/kg
Cc1ccccc1/C(N)=C1\Sc2ccccc2C1=O [E, (E)-2-[(amino)-(2-methyl-phenyl)methylene]-benzo[b]-thiophen-3(2H)-one]	> 1000 mg/kg	22.8 mg/kg	13.3 mg/kg	15.7 mg/kg
N/C(=C1/Sc2ccccc2C1=O)c1ccccc1 [A, (E)-2-[(amino)phenylmethylene]-benzo[b]thiophen-3(2H)-one]	2400 mg/kg	12.8 mg/kg	37 mg/kg	46 mg/kg
N/C(=C1/Sc2ccccc2C1=O)c1ccccc1Cl [C, (E)-2-[(amino)-(2-chloro-phenyl)methylene]-benzo[b]thiophen-3(2H)-one]	500 to 1000 mg/kg	7 mg/kg	4.4 mg/kg	5 mg/kg
